Measurements published in US20120122870A1, “Treatment Of Ischemia-Reperfusion Injury” (MUSC FOUNDATION FOR RESEARCH DEVELOPMENT, priority 2009, published 2012).
“Also recorded” adds a separate entry of the source.

Legend:
[1] = system: mitochondrial depolarization in hepatocytes; assay: Intravital multiphoton microscopy of mitochondrial depolarization (Rh123/PI) after hepatic IR; type: in vivo, mice; conditions: 1 h of ischemia and 2 h of reperfusion
From the text: MPT onset is an important mechanism leading to cell death due to mitochondrial depolarization. […] There are two main advantages of multiphoton microscopy: 1) Red/infrared light penetrates deeper than visible light into solid tissues allowing visualization of tissue planes as deep as 1 mm into thick specimens. […] Therefore, the viability of thick living specimens is maintained much longer with multiphoton microscopy (Lemasters 2000). These advantages make multiphoton microscopy a powerful tool for studying mitochondrial function in live animals.
Following 1 h-ischemia and […], rhodamine-123 (Rh123), a cationic fluorophore that is taken up by polarized mitochondria, and propidium iodine (PI) that labels the nuclei of non-viable cells were infused and intravital multiphoton imaging of livers was performed. […]
Imaging of fluorescent probes Rh123, PI and calcein in vivo was achieved using a Zeiss LSM 510 laser scanning multiphoton microscope system using IR excitation of 800-900 nm from a Coherent Chameleon tunable Ti-Sapphire femtosecond pulsed laser, which excites both red- and green-fluorescing (rhodamine- and fluorescein-like) fluorophores. For calcein fluorescence, excitation of 720-nm was used.

[2] = system: neutrophil influx into the kidney (MPO activity); assay: Kidney myeloperoxidase (MPO) activity after severe kidney IR; type: in vivo, mice; conditions: 50 mg/kg
Description: Myeloperoxidase (MPO) activity, which is reflective of neutrophil influx into the tissue, is often used as measure of local inflammation, and was assayed in the kidneys of the mice from FIG. 4. […] Therefore, the level of kidney MPO and expected inflammatory damage in vehicle-treated animals correlates with the observed reduction in renal function.

[3] = system: kidney damage after severe ischemia-reperfusion; assay: Kidney histology (H&E) after severe kidney IR; type: in vivo, mice; conditions: 4 and 48 hours post ischemia and reperfusion
Description: Kidneys from the animals described with respect to FIG. 4 were sectioned and stained with H&E for histological evaluation. […] Kidney sections were quantitatively scored on a scale of 1 to 3 for five parameters (tubule cell swelling, tubular dilatation, edema, epithelial necrosis and tubular casts) that were added to generate a total score (FIG. 6).

[4] = system: SK expression in the liver; assay: SK immunohistochemistry in liver after hepatic warm IR; type: in vivo, mice; conditions: 50 mg/kg gavage 1 h prior to surgery; 1 h-ischemia plus 6 h-reperfusion
Description: Warm IR upregulates SK in the liver. IR injury to the liver occurs in LT. Since SK is associated with inflammatory processes, we investigated whether IR affects SK expression in the liver. Male C57BL/6 mice (8-9 weeks) were gavaged with ABC294640 (ABC, 50 mg/kg) or an equal volume of vehicle (0.375% Tween-80 in phosphate buffer) 1 h prior to surgery. Under ether anesthesia, hepatic ischemia was induced by clamping the hepatic artery and portal vein to the upper three lobes of the liver (i.e., about 70% of total liver). One hour later, the ischemic liver was reperfused by opening the vascular clamp. Livers were collected 6 h later under pentobarbital anesthesia (80 mg/kg, i.p.) and SK was detected immunohistochemically. […] SK expression increased markedly after hepatic IR (FIG. 9 middle). Upregulation of SK occurred most overtly in hepatocytes in the midzonal regions of the liver lobule. […] Immunohistochemistry: Sections were deparaffinized in xylene, rehydrated in a series of graded alcohol concentrations and placed in phosphate buffered saline with 0.1% Tween-20. […] Appropriate peroxidase-conjugated secondary antibodies (DAKO Corp.) were then applied, followed by 3,3'-diaminobenzidine chromagen as the peroxidase substrate. A light counterstain of Meyer's hematoxylin was applied.

hepatic warm IR in mice = assay: Survival after hepatic warm IR with removal of non-ischemic lobes; type: in vivo; conditions: 1 h-ischemia, non-ischemic lobes removed, observed 7 days
From the text: To evaluate the effects of ABC294640 on survival of mice after IR, the non-ischemic liver lobes were removed after the vascular clamp was opened and mice were observed 7 days for survival. This procedure mimics total LT.

[5] = system: hepatic apoptosis after warm IR; assay: TUNEL apoptosis in liver after hepatic warm IR; type: in vivo, mice; conditions: 1 h-ischemia plus 6 h-reperfusion
Description: ABC294640 prevents hepatic warm IR-induced cell death. SK increased after hepatic IR, therefore, we investigated whether ABC294640 protects against hepatic IR injury. […] Necrotic areas became panlobular after 1 h-ischemia plus 6 h of reperfusion (FIG. 10, middle). Necrotic area, quantified by computerized image analysis of 10 random fields per slide, accounted for 68% of the liver tissue (FIG. 11A). After ABC294640 treatment, necrosis was decreased to 7%, which represents an almost 90% attenuation as compared to the vehicle-treated livers (FIG. 11A). Hepatic apoptosis was evaluated by terminal deoxylnucleotidyl transferase-mediated deoxyuridine triphosphate biotin nick end labeling (TUNEL) (FIG. 11B). TUNEL-positive cells were rare in livers from sham-operated mice (0.13 cells/high power field (hpf)). TUNEL staining increased slightly to 2 cells/hpf after 1 h-ischemia plus 6 h-reperfusion (FIG. 11B). […] The TUNEL assay was performed to assess apoptosis using an In Situ Cell Death Detection Kit (Roche Diagnostics Corp., Indianapolis, Ind.). TUNEL-positive and negative cells were counted in 10 randomly selected fields using a 40× objective lens. Apoptosis was verified morphologically by identifying condensed and fragmented nuclei in 10 randomly selected fields in H+E slides ([…] et al. 1995).

O=C(NCc1ccncc1)C12CC3CC(C1)CC(c1ccc(Cl)cc1)(C3)C2 [ABC294640, 3-(4-chlorophenyl)-N-(pyridin-4-ylmethyl)adamantane-1-carboxamide]
mitochondrial depolarization after hepatic IR (in words) [1]: rare and largely prevented and prevents mitochondrial depolarization
hepatocytes with mitochondrial depolarization ([1]; Rh123): 17%
increase in kidney MPO activity (neutrophil infiltration) [2]: reduces neutrophil infiltration; also recorded: completely blocked
kidney histological damage vs vehicle [3]: protects against microscopic damage; also recorded: much less damage
upregulation of SK after hepatic IR [4]: prevents upregulation; also recorded: attenuated upregulation
survival / acute liver failure after IR (in words) (hepatic warm IR in mice): significantly different; also recorded: completely prevented acute liver failure
survival after IR (hepatic warm IR in mice; pretreated mice): 100%
increase of TUNEL-positive cells [5]: partially blocked
